Test results reported in PubChem BioAssay (NCI).
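Cells were grown in 96-well plates and exposed to each compound for 48 hours at five concentrations; endpoints were interpolated linearly between bracketing concentrations, or set to the highest concentration if not reached. At the TGI there is no net growth.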

Experiments:
Assay in all cases: DTP human tumour cell line panel, 48 h
T-47D breast = test system: T-47D breast
A549 NSCLC = test system: A549 NSCLC
HCT-15 colon = test system: HCT-15 colon
SK-MEL-28 melanoma = test system: SK-MEL-28 melanoma
OVCAR-3 ovarian = test system: OVCAR-3 ovarian
MOLT-4 leukemia = test system: MOLT-4 leukemia
SF-295 CNS = test system: SF-295 CNS
UO-31 renal = test system: UO-31 renal
TK-10 renal = test system: TK-10 renal
BT-549 breast = test system: BT-549 breast
U251 CNS = test system: U251 CNS
IGROV1 ovarian = test system: IGROV1 ovarian
SN12C renal = test system: SN12C renal
M14 melanoma = test system: M14 melanoma
UACC-62 melanoma = test system: UACC-62 melanoma
SK-MEL-2 melanoma = test system: SK-MEL-2 melanoma
K-562 leukemia = test system: K-562 leukemia
MDA-N = test system: MDA-N
HCC-2998 colon = test system: HCC-2998 colon
ACHN renal = test system: ACHN renal
NCI/ADR-RES ovarian = test system: NCI/ADR-RES ovarian
SF-268 CNS = test system: SF-268 CNS
CAKI-1 renal = test system: CAKI-1 renal
NCI-H522 lung = test system: NCI-H522 lung
HOP-62 NSCLC = test system: HOP-62 NSCLC
SNB-19 CNS = test system: SNB-19 CNS
COLO 205 colon = test system: COLO 205 colon
RPMI-8226 leukemia = test system: RPMI-8226 leukemia
HS 578T breast = test system: HS 578T breast
UACC-257 melanoma = test system: UACC-257 melanoma
MDA-MB-435 = test system: MDA-MB-435
SR leukemia = test system: SR leukemia
MALME-3M melanoma = test system: MALME-3M melanoma
NCI-H23 lung = test system: NCI-H23 lung
786-0 renal = test system: 786-0 renal
DU-145 prostate = test system: DU-145 prostate
PC-3 prostate = test system: PC-3 prostate
MCF7 breast = test system: MCF7 breast
OVCAR-5 ovarian = test system: OVCAR-5 ovarian
SK-MEL-5 melanoma = test system: SK-MEL-5 melanoma
HL-60(TB) leukemia = test system: HL-60(TB) leukemia
OVCAR-8 ovarian = test system: OVCAR-8 ovarian
EKVX NSCLC = test system: EKVX NSCLC
KM12 colon = test system: KM12 colon
SK-OV-3 ovarian = test system: SK-OV-3 ovarian
MDA-MB-231 breast = test system: MDA-MB-231 breast
A498 renal = test system: A498 renal
SF-539 CNS = test system: SF-539 CNS
SNB-75 CNS = test system: SNB-75 CNS
RXF 393 renal = test system: RXF 393 renal
HCT-116 colon = test system: HCT-116 colon
HT29 colon = test system: HT29 colon
NCI-H460 lung = test system: NCI-H460 lung
LOX IMVI melanoma = test system: LOX IMVI melanoma
SW-620 colon = test system: SW-620 colon
HOP-92 NSCLC = test system: HOP-92 NSCLC
CCRF-CEM leukemia = test system: CCRF-CEM leukemia
NCI-H226 lung = test system: NCI-H226 lung

Structure (SMILES): O=C1CC(O)c2c(Br)sc(Br)c21 (stereo not given)
- TGI (T-47D breast): 30.5 µM
- TGI (A549 NSCLC): 43.4 µM
- TGI (HCT-15 colon): 43 µM
- TGI (SK-MEL-28 melanoma): 30.1 µM
- TGI (OVCAR-3 ovarian): 19.9 µM
- TGI (MOLT-4 leukemia): 4.61 µM
- TGI (SF-295 CNS): 32 µM
- TGI (UO-31 renal): 7.19 µM
- TGI (TK-10 renal): 13.3 µM
- TGI (BT-549 breast): 63.1 µM
- TGI (U251 CNS): 16.4 µM
- TGI (IGROV1 ovarian): 31.9 µM
- TGI (SN12C renal): 34.2 µM
- TGI (M14 melanoma): 28.8 µM
- TGI (UACC-62 melanoma): 26.3 µM
- TGI (SK-MEL-2 melanoma): 28 µM
- TGI (K-562 leukemia): 8.3 µM
- TGI (MDA-N): 22.5 µM
- TGI (HCC-2998 colon): 18 µM
- TGI (ACHN renal): 29.7 µM
- TGI (NCI/ADR-RES ovarian): > 100 µM
- TGI (SF-268 CNS): 43.8 µM
- TGI (CAKI-1 renal): 4.24 µM
- TGI (NCI-H522 lung): 29.4 µM
- TGI (HOP-62 NSCLC): 24.5 µM
- TGI (SNB-19 CNS): 34.9 µM
- TGI (COLO 205 colon): 31 µM
- TGI (RPMI-8226 leukemia): 11.8 µM
- TGI (HS 578T breast): 55.9 µM
- TGI (UACC-257 melanoma): 17.4 µM
- TGI (MDA-MB-435): 18.5 µM
- TGI (SR leukemia): 29.6 µM
- TGI (MALME-3M melanoma): 32.9 µM
- TGI (NCI-H23 lung): 57.7 µM
- TGI (786-0 renal): 14.8 µM
- TGI (DU-145 prostate): 22.2 µM
- TGI (PC-3 prostate): 25.9 µM
- TGI (MCF7 breast): 15.5 µM
- TGI (OVCAR-5 ovarian): 38.6 µM
- TGI (SK-MEL-5 melanoma): 34.5 µM
- TGI (HL-60(TB) leukemia): 14.9 µM
- TGI (OVCAR-8 ovarian): 24.1 µM
- TGI (EKVX NSCLC): 27.7 µM
- TGI (KM12 colon): 20.8 µM
- TGI (SK-OV-3 ovarian): 30.3 µM
- TGI (MDA-MB-231 breast): 29.9 µM
- TGI (A498 renal): 39.6 µM
- TGI (SF-539 CNS): 21.5 µM
- TGI (SNB-75 CNS): 29.8 µM
- TGI (RXF 393 renal): 5.51 µM
- TGI (HCT-116 colon): 26.7 µM
- TGI (HT29 colon): 43.1 µM
- TGI (NCI-H460 lung): 34.8 µM
- TGI (LOX IMVI melanoma): 20.4 µM
- TGI (SW-620 colon): 4.53 µM
- TGI (HOP-92 NSCLC): 43.6 µM

Structure (SMILES): CC(=O)N1OC(C)CC1Nc1ccc(Br)cc1 (stereo not given)
- TGI (T-47D breast): > 100 µM
- TGI (A549 NSCLC): > 100 µM
- TGI (HCT-15 colon): > 100 µM
- TGI (OVCAR-3 ovarian): > 100 µM
- TGI (MOLT-4 leukemia): > 100 µM
- TGI (SF-295 CNS): > 100 µM
- TGI (UO-31 renal): > 100 µM
- TGI (TK-10 renal): > 100 µM
- TGI (BT-549 breast): > 100 µM
- TGI (U251 CNS): > 100 µM
- TGI (CCRF-CEM leukemia): > 100 µM
- TGI (IGROV1 ovarian): > 100 µM
- TGI (SN12C renal): > 100 µM
- TGI (M14 melanoma): > 100 µM
- TGI (UACC-62 melanoma): > 100 µM
- TGI (SK-MEL-2 melanoma): > 100 µM
- TGI (K-562 leukemia): > 100 µM
- TGI (MDA-N): > 100 µM
- TGI (HCC-2998 colon): 22.4 µM
- TGI (ACHN renal): > 100 µM
- TGI (NCI/ADR-RES ovarian): > 100 µM
- TGI (SF-268 CNS): > 100 µM
- TGI (HOP-62 NSCLC): 6.13 µM
- TGI (SNB-19 CNS): > 100 µM
- TGI (HS 578T breast): > 100 µM
- TGI (MDA-MB-435): > 100 µM
- TGI (SR leukemia): > 100 µM
- TGI (MALME-3M melanoma): > 100 µM
- TGI (NCI-H23 lung): > 100 µM
- TGI (786-0 renal): > 100 µM
- TGI (DU-145 prostate): > 100 µM
- TGI (PC-3 prostate): > 100 µM
- TGI (MCF7 breast): > 100 µM
- TGI (OVCAR-5 ovarian): > 100 µM
- TGI (NCI-H226 lung): > 100 µM
- TGI (SK-MEL-5 melanoma): > 100 µM
- TGI (HL-60(TB) leukemia): > 100 µM
- TGI (OVCAR-8 ovarian): > 100 µM
- TGI (EKVX NSCLC): > 100 µM
- TGI (KM12 colon): > 100 µM
- TGI (SK-OV-3 ovarian): > 100 µM
- TGI (A498 renal): > 100 µM
- TGI (SF-539 CNS): > 100 µM
- TGI (RXF 393 renal): > 100 µM
- TGI (HCT-116 colon): > 100 µM
- TGI (HT29 colon): > 100 µM
- TGI (NCI-H460 lung): > 100 µM
- TGI (SW-620 colon): > 100 µM
- TGI (HOP-92 NSCLC): > 100 µM
